Measured values published in patent US20240041814A1, “USE OF REAGENT FOR DETECTING RETINOL METABOLITE IN PREPARATION OF TOOL FOR DIAGNOSING AND/OR TREATING PNEUMOCONIOSIS” (Institute of Basic Medical Sciences of Chinese Academy of …, priority 2022, published 2024).

Assays:
mice with pneumoconiosis [1] = experiment: Mouse model of pneumoconiosis (intratracheal silica) with ATRA treatment, overall outcome; assay type: in vivo; details: 10 mg/kg ATRA intragastrically 3 times a week for 4 weeks
mice with pneumoconiosis [2] = experiment: Cardiopulmonary function test (RVSP, lung function IC and Cst); assay type: in vivo, mouse; details: ATRA-treated mice with pneumoconiosis compared with control mice, 10 mg/kg intragastrically 3 times a week for 4 weeks
Method: Male C57BL/6J mice (aged 8-10 weeks and weighing 25-30 g) were selected and housed in an SPF grade laboratory animal room, and the model of pneumoconiosis was constructed by one-time intratracheal instillation of silica (Si); the mice were divided into four groups (n=9): (1) PBS+vehicle group: 40 μL of sterile phosphate-buffered saline (PBS) was administered by intratracheal instillation; two weeks later, corn oil was administered intragastrically 3 times a week, for 4 weeks; (2) PBS+ATRA group: 40 μL of sterile PBS was administered by intratracheal instillation; two weeks later, 10 mg/kg ATRA was administered intragastrically 3 times a week, for 4 weeks; (3) Si+vehicle group: a silica suspension (300 mg/mL, 40 μL) was administered by intratracheal instillation; two weeks later, corn oil was administered intragastrically 3 times a week, for 4 weeks; (4) Si+ATRA group: a silica suspension (300 mg/mL, 40 μL) was administered by intratracheal instillation; two weeks later, 10 mg/kg ATRA was administered intragastrically 3 times a week, for 4 weeks. All mice were sacrificed after 6 weeks, and the corresponding samples were collected for detection. An anesthetized mouse was fixed on an experimental bench, and an 8 gauge needle connected with a high-fidelity pressure sensor was inserted into the right ventricle to directly measure the invasive right ventricular systolic pressure (RVSP). The RVSP was recorded and analyzed by a Power Lab data acquisition and analysis system (PL 3504, AD Instruments, Australia). Mouse lung function was detected by a pulmonary function testing system (DSI Buxco, USA). Before experiment, the mouse was anesthetized by intraperitoneal injection of 0.4 mL/100 g 2% pentobarbital, tracheotomy was performed, a trachea cannula was inserted, and a ventilator was connected. […] A statistical analysis was conducted on indexes closely related to lung function changes of pneumoconiosis, including inspiratory capacity (IC) and quasi-static compliance (Cst).

FN-1 and Col-I = experiment: Western blot and qPCR of fibrosis factors in mouse lung tissue; assay type: in vivo; details: mice with pneumoconiosis, 10 mg/kg ATRA intragastrically 3 times a week for 4 weeks
Method: Male C57BL/6J mice (aged 8-10 weeks and weighing 25-30 g) were selected and housed in an SPF grade laboratory animal room, and the model of pneumoconiosis was constructed by one-time intratracheal instillation of silica (Si); the mice were divided into four groups (n=9): (1) PBS+vehicle group: 40 μL of sterile phosphate-buffered saline (PBS) was administered by intratracheal instillation; two weeks later, corn oil was administered intragastrically 3 times a week, for 4 weeks; (2) PBS+ATRA group: 40 μL of sterile PBS was administered by intratracheal instillation; two weeks later, 10 mg/kg ATRA was administered intragastrically 3 times a week, for 4 weeks; (3) Si+vehicle group: a silica suspension (300 mg/mL, 40 μL) was administered by intratracheal instillation; two weeks later, corn oil was administered intragastrically 3 times a week, for 4 weeks; (4) Si+ATRA group: a silica suspension (300 mg/mL, 40 μL) was administered by intratracheal instillation; two weeks later, 10 mg/kg ATRA was administered intragastrically 3 times a week, for 4 weeks. All mice were sacrificed after 6 weeks, and the corresponding samples were collected for detection. Lung tissue proteins of all mice were extracted. […]

IL-1β and IL-6 = experiment: ELISA of inflammatory factors in mouse BALF; assay type: in vivo; details: mice with pneumoconiosis, 10 mg/kg ATRA intragastrically 3 times a week for 4 weeks
Method: Male C57BL/6J mice (aged 8-10 weeks and weighing 25-30 g) were selected and housed in an SPF grade laboratory animal room, and the model of pneumoconiosis was constructed by one-time intratracheal instillation of silica (Si); the mice were divided into four groups (n=9): (1) PBS+vehicle group: 40 μL of sterile phosphate-buffered saline (PBS) was administered by intratracheal instillation; two weeks later, corn oil was administered intragastrically 3 times a week, for 4 weeks; (2) PBS+ATRA group: 40 μL of sterile PBS was administered by intratracheal instillation; two weeks later, 10 mg/kg ATRA was administered intragastrically 3 times a week, for 4 weeks; (3) Si+vehicle group: a silica suspension (300 mg/mL, 40 μL) was administered by intratracheal instillation; two weeks later, corn oil was administered intragastrically 3 times a week, for 4 weeks; (4) Si+ATRA group: a silica suspension (300 mg/mL, 40 μL) was administered by intratracheal instillation; two weeks later, 10 mg/kg ATRA was administered intragastrically 3 times a week, for 4 weeks. All mice were sacrificed after 6 weeks, and the corresponding samples were collected for detection.
Concentrations of inflammatory factors IL-1β and IL-6 in mouse BALF were detected by using ELISA kits.

mice with pneumoconiosis [3] = experiment: Pathological staining of lung (HE, Szapiel score; Masson, Aschroft score); assay type: in vivo, mouse; details: 10 mg/kg ATRA intragastrically 3 times a week for 4 weeks
Method: Male C57BL/6J mice (aged 8-10 weeks and weighing 25-30 g) were selected and housed in an SPF grade laboratory animal room, and the model of pneumoconiosis was constructed by one-time intratracheal instillation of silica (Si); the mice were divided into four groups (n=9): (1) PBS+vehicle group: 40 μL of sterile phosphate-buffered saline (PBS) was administered by intratracheal instillation; two weeks later, corn oil was administered intragastrically 3 times a week, for 4 weeks; (2) PBS+ATRA group: 40 μL of sterile PBS was administered by intratracheal instillation; two weeks later, 10 mg/kg ATRA was administered intragastrically 3 times a week, for 4 weeks; (3) Si+vehicle group: a silica suspension (300 mg/mL, 40 μL) was administered by intratracheal instillation; two weeks later, corn oil was administered intragastrically 3 times a week, for 4 weeks; (4) Si+ATRA group: a silica suspension (300 mg/mL, 40 μL) was administered by intratracheal instillation; two weeks later, 10 mg/kg ATRA was administered intragastrically 3 times a week, for 4 weeks. All mice were sacrificed after 6 weeks, and the corresponding samples were collected for detection. […] For HE staining, inflammation was scored based on Szapiel scores; for Masson staining, the severity of fibrosis was scored by Aschroft scores. The sections were scanned, photographed and counted by a 3D HISTECH digital slide scanner.

CC1=C(/C=C/C(C)=C/C=C/C(C)=C/C(=O)O)C(C)(C)CCC1 [ATRA, All-trans retinoic acid]
cardiopulmonary function, inflammation, and fibrosis (mice with pneumoconiosis [1]): significantly improve | inspiratory capacity (IC) (mice with pneumoconiosis [2]): improved to a certain extent | quasi-static compliance (Cst) (mice with pneumoconiosis [2]): improved to a certain extent | right ventricular systolic pressure (RVSP) (mice with pneumoconiosis [2]): lowered to a certain extent | level of fibrosis factor Col-I in lung tissue (transcriptional) (FN-1 and Col-I): reduced levels | level of fibrosis factor FN-1 in lung tissue (translational and transcriptional) (FN-1 and Col-I): reduced levels | concentration of IL-1β in BALF (IL-1β and IL-6): lowered concentrations | concentration of IL-6 in BALF (IL-1β and IL-6): lowered concentrations | severity of fibrosis (Masson staining) (mice with pneumoconiosis [3]): reduce the severity | severity of inflammation (HE staining) (mice with pneumoconiosis [3]): reduce the severity
